{
  "source": "patent US20230321187A1",
  "about": "“OCTOPUS-DERIVED PEPTIDE OCTOPROMYCIN HAVING ANTIBACTERIAL AND ANTI-BIOFILM ACTIVITY AGAINST ACINETOBACTER BAUMANNII” (priority 2020, published 2023)",
  "key": {"[1]": {"system": "A. baumannii", "assay": "Histological analysis of A. baumannii-infected zebrafish (H&E)", "type": "in vivo", "conditions": "48 hpe, vs A. baumannii-infected group", "description": "Two zebrafish were selected from each group at the 80% death stage (48 hpe) and the spleen, gills and kidneys were collected separately. Structural changes in A. baumannii-infected zebrafish treated with octopromycin were confirmed by histological analysis. Briefly, two fish from each group (control group, A. baumannii-infected group and octopromycin-treated group) were anesthetized with excess tricaine and the spleen, gills, and kidneys were surgically removed. Each tissue was immersed in PBS and fixed in 10% neutral buffered formalin. After a 12-hour washing step, tissues were dehydrated using a graded series of alcohols in a semi-closed benchtop tissue processor (Leica® TP1020, Germany). The dehydrated tissues were paraffin-embedded (Leica®EG1150 Tissue Embedding Center, Germany), sectioned at […] (Leica®RM2125 microtome, Germany), and stained with Hematoxylin and Eosin (H & E) (Sigma, Aldrich). The stained tissues of each group were imaged using a digital camera (LEICA®DCF450-C, Germany) connected to a microscope (LEICA®DM 3000 LED)."}, "[2]": {"system": "A. baumannii", "assay": "Propidium iodide (PI) uptake / FDA staining membrane permeability assay (CLSM)", "type": "cell-based, Acinetobacter baumannii", "experimental": "Propidium iodide (PI) uptake assay was performed to evaluate an effect of octopromycin on association with the membrane permeability and apoptosis of A. baumannii. The PI was a red fluorescent nuclear and chromosome counter dye that indicated changes in cell membrane permeability, and was used to detect the presence of dead cells and simultaneously observe live cells by observing green fluorescence (FDA). A. baumannii treated with octopromycin at MIC; 50 μg/mL and MBC; 200 μg/mL levels and control cell suspensions were centrifuged (5000 rpm for 2 minutes), washed with PBS and the pellets were suspended in PBS. Subsequently, the cells were cultured with 20 μg/mL of PI (Sigma Aldrich, USA) and 8 μg/mL of FDA (Sigma Aldrich, USA) at 25° C. for 30 minutes in the dark, and finally, the remaining dye was washed with PBS. Finally, a 5 μL drop of each suspension was placed on a cover slip and fluorescence images were observed using a CLSM integrated with a scan head on an Axiovert 200M inverted microscope (Carl Zeiss, Germany)."}, "[3]": {"system": "A. baumannii", "assay": "Time-kill kinetics (OD 595 nm)", "type": "cell-based, Acinetobacter baumannii", "experimental": "The MIC and MBC levels of octopromycin in A. baumannii were determined using media dilution tests and subcultures, respectively, according to the guidelines of the Clinical and Laboratory Standards Institute (CLSI, 2008 M27-A3). Several concentrations of octopromycin (0, 5, 10, 25, 50, 100, and 200 μg/mL) were tested as standard antibiotics (positive control) together with chloramphenicol (10 μg/mL, Sigma-Aldrich, USA) acting on A. baumannii growth and the MBC of chloramphenicol was confirmed according to the same procedure. The MIC was determined as the minimum concentration required to inhibit visual growth of A. baumannii. […] For analysis of time-kill kinetics, A. baumannii was cultured with octopromycin at various concentrations (0, 25, 50, 100, and 200 μg/mL) in the TSA medium at 25° C., and at different time intervals (0, 3, 6, 9, 12, 18, and 21 h), the absorbance was measured at 595 nm using a microplate reader (Bio-Rad, Saint Louis, USA) to confirm an inhibitory effect after culturing."}, "[4]": {"system": "HEK293T cells", "assay": "MTT cytotoxicity assay in HEK293 cells", "type": "cell-based, human", "experimental": "(§1) To measure the cytotoxicity of octopromycin on HEK293T (American Type Culture Collection ATCC-11268) and Raw 264.7 cells, the cells were treated with octopromycin and cell viability was evaluated. The cells were harvested, counted and seeded at a density of […] per well in a 96-well plate and cultured for 24 hours at 37° C. and 5% CO2. The cells were treated with different concentrations of octopromycin (0 to 800 μg/mL) and cultured for 24 hours. After culturing, the culture medium was replaced with a fresh medium, and 10 μL of MTT (5 mg/mL) was added to each well and incubated in a CO2 incubator for 4 hours. The formed formazan crystals were dissolved in 50 μL of DMSO and absorbance was measured at 570 nm using a microplate reader (Bio-Rad Laboratories, Inc, USA). Cells treated with the medium (control) were considered as 100% viability (control group), and current viability was normalized and calculated for the untreated control group."}, "[5]": {"assay": "MTT cytotoxicity assay in HEK293 cells", "type": "cell-based, human", "conditions": "HEK293T cells", "experimental": "as §1"}, "[6]": {"system": "zebrafish embryos", "assay": "Zebrafish embryo toxicity (mortality and teratogenicity)", "type": "in vivo", "experimental": "Wild-type (AB) adult zebrafish was maintained in an automated water circulation system at 28° C. under a photoperiod of 14 h (light): 10 h (dark). After zebrafish (to 4 months of age) was mated, embryos were collected at a 1 hours post fertilization (1 hpf) stage and rinsed with embryo water. First, the viability of newly fertilized embryos was identified under a stereoscopic microscope (Nikon, SMZ1000, Japan) before use in experiments. To determine toxicity levels at 24, 48, 72, and 96 hours after exposure, embryos at stages 1-2 hpf were exposed to various concentrations of octopromycin (0 to 8 μg/mL) for 96 hours.\nIn addition, to evaluate in vivo toxicity, the cumulative mortality of developing zebrafish embryos for 96 hours was calculated at octopromycin exposure (0, 0.25, 0.50, 1.00, 2.00, 4.00, and 8.00 μg/mL). […] However, concentration-dependent mortality patterns occurred by an increase in octopromycin concentration."}, "[7]": {"system": "A. baumannii", "assay": "FE-SEM analysis of morphological and ultrastructural changes", "type": "cell-based, Acinetobacter baumannii", "conditions": "MIC (50 μg/mL) and MBC (200 μg/mL), 9 hours", "experimental": "To understand a mode of action of octopromycin, FE-SEM analysis was performed at MIC and MBC concentrations to estimate the ultrastructure changes of A. baumannii.\nFirst, A. baumannii cells were treated with octopromycin at MIC (50 μg/mL) and MBC (200 μg/mL) for 9 hours. As a negative control group, an untreated A. baumannii culture solution was used, and all other steps were performed identically for the sample. Subsequently, the culture solution was centrifuged at 3500 rpm […] and the pellet was washed with phosphate saline buffer PBS and prefixed with 2.5% glutaraldehyde for 30 minutes. Then, the prefixed cells were washed with PBS and continuously dehydrated using ethanol (30, 50, 70, 80, 90, and 100%). The fixed cells were dried and coated with platinum using an ion sputter (E-1030, Hitachi, Japan)."}},
  "note": "Entries after “also recorded” stand apart in the source; their conditions may differ. Where no end group is shown, it is not given here.",
  "data": [
    {"sequence": "RRLIRTDTGPIIYDYFKDQLLKKGMVILRESMKNLKGM [octopromycin]", "values": [
      {"measurement": "histology of kidney, spleen and gills", "setting": "[1]", "value": "tissue disorders and pathological damage were reduced overall; also recorded: tissue disorders and pathological damage were reduced in all tissues"},
      {"measurement": "membrane permeability (PI/FDA staining)", "setting": "[2]; MBC (200 μg/mL)", "value": "almost all A. baumannii cells showed red fluorescence signals"},
      {"measurement": "membrane permeability (PI/FDA staining)", "setting": "[2]; MIC (50 μg/mL)", "value": "more PI-stained red fluorescent cells"},
      {"measurement": "growth inhibition (time-kill kinetics)", "setting": "[3]; 25 μg/mL, up to 12 hours", "value": "partial growth inhibition"},
      {"measurement": "growth inhibition (time-kill kinetics)", "setting": "[3]; at a MIC concentration or less, 25° C., OD 595 nm", "value": "clear growth inhibition"},
      {"measurement": "cell viability", "setting": "[4]; HEK293, >400 μg/mL", "value": "significantly reduced"},
      {"measurement": "toxic effect", "setting": "[4]; HEK293, MBC level (200 μg/mL)", "value": "no toxic effect"},
      {"measurement": "viability at 24 h", "setting": "[5]; human embryonic kidney 293T, concentration not given, read-out: cells alive", "value": "≥ 85", "unit": "%"},
      {"measurement": "viability at 24 h, 400 µg/mL", "setting": "[5]; human, HEK293, 400 μg/mL, 24 hours, read-out: cell viability", "value": 85, "unit": "%"},
      {"measurement": "embryo mortality", "setting": "[6]; 0.25 μg/mL, 96 hours exposure", "value": "no embryo mortality"},
      {"measurement": "toxicity to zebrafish embryos", "setting": "[6]; 4 μg/mL", "value": "not toxic"},
      {"measurement": "embryo mortality", "setting": "[6]; 8.0 μg/mL, 24 hpe", "value": 100, "unit": "%"},
      {"measurement": "maximum non-lethal concentration", "setting": "[6]; zebrafish embryos, no abnormal appearance", "value": 4, "unit": "µg/mL"},
      {"measurement": "morphological and ultrastructural changes (FE-SEM)", "setting": "[7]", "value": "severe membrane destruction; also recorded: caused ultrastructural cell wall deformation"}
    ]}
  ]
}
